{"source": "patent US20250197417A1", "about": "“CRYSTALLINE INTERMEDIATES” (QBIOTICS PTY LTD, priority 2021, published 2025)", "key": {"[1]": {"assay": "Crystallization study, preliminary solvent screening (solubility comments)", "format": "physicochemical", "text": "An aliquot of purified compound of formula (Ia) obtained from Example 4 (0.83 L containing about 10 g of compound) was used in the crystallization study."}, "[2]": {"assay": "Storage stability of crystalline forms of compound of formula (Ia)", "format": "physicochemical", "procedure": "Form A of the crystalline anhydrous Compound of formula (Ia) was stable for at least 9 months in industrial packaging (Type III amber glass vial (10 mL) closed by a black plastic screw cap with polyethylene stoppers) at 25° C. and 60% relative humidity and as a free crystalline powder at 80° C. and 60% humidity for 24 hours.\nThe anhydrous crystalline Form B was characterized by an X-ray powder diffraction (X-RPD) pattern obtained using the copper wavelengths λ1 and λ2 of 1.54056 Å and 1.54439 Å showing a crystalline structure and comprising distinctive reflections, expressed as 20 degrees values, at 4.9, 8.5, 9.8, 11.4, 14.6, 16.5, 17.5, 19.5, 21.4, 27.7, 28.7±0.2 degrees 2θ."}}, "data": [{"smiles": "CC1=CC2[C@]3(O)C(C4C(C)(C)[C@]4(O)[C@H](O)[C@H]3C)[C@@H]3O[C@@]34COC(C)(C)O[C@H]4[C@]2(O)C1=O", "note": "(stereo partly shown) [Compound of formula (Ia)]", "values": [{"measurement": "Comment (solubility)", "setting": "[1]; 2-Propanol, 5 V → 10 V, 20-25° C. → reflux, remained dissolved", "result": "Remained"}, {"measurement": "Comment (solubility)", "setting": "[1]; Acetone, 5 V → 10 V, 20-25° C. → reflux, soluble only with 10 V of acetone at reflux", "result": "Soluble only"}, {"measurement": "Comment (solubility)", "setting": "[1]; Acetonitrile, 5 V → 10 V, 20-25° C. → reflux, dissolution observed at reflux", "result": "Dissolution"}, {"measurement": "Comment (solubility)", "setting": "[1]; Dimethylformamide, 5 V → 10 V, 20-25° C., soluble only with 10 V of DMF", "result": "Soluble only"}, {"measurement": "Comment (solubility)", "setting": "[1]; Ethyl acetate, 5 V → 10 V, 20-25° C., remained dissolved", "result": "Remained"}, {"measurement": "Comment (solubility)", "setting": "[1]; Methyl tert-butyl ether, 5 V → 20 V, 20-25° C. → reflux", "result": "Not soluble"}]}, {"smiles": "CC1=CC2[C@]3(O)C(C4C(C)(C)[C@]4(O)[C@H](O)[C@H]3C)[C@@H]3O[C@@]34COC(C)(C)O[C@H]4[C@]2(O)C1=O", "note": "(stereo partly shown) [dihydrate form]", "values": [{"measurement": "solid form change upon storage", "setting": "[2]; storage at 25° C. and 80% relative humidity for 5 days", "result": "transformed back to Form A"}]}, {"smiles": "CC1=CC2[C@]3(O)C(C4C(C)(C)[C@]4(O)[C@H](O)[C@H]3C)[C@@H]3O[C@@]34COC(C)(C)O[C@H]4[C@]2(O)C1=O", "note": "(stereo partly shown) [Form A]", "values": [{"measurement": "stable (storage time)", "setting": "[2]; free crystalline powder, 80° C. and 60% humidity", "result": 24, "unit": "h"}, {"measurement": "stable (storage time)", "setting": "[2]; industrial packaging (Type III amber glass vial, 10 mL, screw cap with polyethylene stoppers), 25° C. and 60% relative humidity", "result": "at least 9 months"}, {"measurement": "solid form change upon storage", "setting": "[2]; storage at 5° C. for 5 days", "result": "transformed into a dihydrate form"}, {"measurement": "solid form change upon storage", "setting": "[2]; storage at 25° C. at 80% relative humidity for 68 hours", "result": "a new stable anhydrous crystalline form was formed, Form B"}, {"measurement": "solid form change upon storage", "setting": "[2]; storage at 40° C. at 80% relative humidity for 7 days", "result": "a new stable anhydrous crystalline form was formed, Form B"}]}, {"smiles": "CC1=CC2[C@]3(O)C(C4C(C)(C)[C@]4(O)[C@H](O)[C@H]3C)[C@@H]3O[C@@]34COC(C)(C)O[C@H]4[C@]2(O)C1=O", "note": "(stereo partly shown) [Form B]", "values": [{"measurement": "stable unchanged (further storage time)", "setting": "[2]; 25° C. at 80% relative humidity", "result": "≥ 7", "unit": "days"}]}]}
